In patent US9340507B2, “Substituted 4-pyridones and their use as inhibitors of neutrophil elastase activity” (Boehringer Ingelheim International GmbH, priority 2012, dated 2016) one finds IC50 data, which are given here for 25 molecules.

Human neutrophil elastase, sequence (P08246 30-267): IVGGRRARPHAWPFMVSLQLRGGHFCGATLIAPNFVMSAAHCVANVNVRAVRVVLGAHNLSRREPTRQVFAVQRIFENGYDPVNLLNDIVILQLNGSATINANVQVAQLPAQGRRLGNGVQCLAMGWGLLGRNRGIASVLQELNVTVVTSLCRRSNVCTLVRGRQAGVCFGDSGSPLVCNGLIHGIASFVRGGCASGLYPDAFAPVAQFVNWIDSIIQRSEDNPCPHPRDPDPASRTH

This experiment addresses Human neutrophil elastase (Homo sapiens (Human), UniProt P08246). The experiment is described as follows: Human Neutrophil Elastase Assay. It is filed as biochemical. The conditions noted are these: substrate MeOSuc-Ala-Ala-Pro-Val-AMC 250 μM, pH 7.5, fluorescence. As to the method: Human Neutrophil Elastase Assay
All other materials were of the highest grade commercially available.
The following buffers were used: Compound buffer: 100 mM Tris, 500 mM NaCl, adjusted to pH 7.5; Assay buffer: 100 mM Tris, 500 mM NaCl, adjusted to pH 7.5, containing 0.01% BSA.
Assay conditions: Test compounds were prediluted in DMSO and subsequently in compound buffer (5% DMSO final). […] After inactivation of the enzyme, fluorescence intensities were measured at 380 nm excitation and 460 nm emission wavelengths.
Each plate contains wells with a high value control (DMSO+enzyme+substrate) and wells with a low value control (DMSO+inactivated enzyme+substrate). IC50 values were estimated using a sigmoidal concentration response curve with variable slope. Means of low values were taken as 0%, means of high values as 100%. IC50 values of selected compound in the Neutrophil Elastase assay: […]
Regarding `Cc1cc(CNC(=O)c2cn(C(C)C)c(C)c(-c3cccc(C(F)(F)F)c3)c2=O)ccc1S(C)(=O)=O` [Example 28.1, 1-Isopropyl-6-methyl-4-oxo-5-(3-trifluoromethyl-phenyl)-1,4-dihydro-pyridine-3-carboxylic acid 4-methanesulfonyl-3-methyl-benzylamide], the IC50 – broadly, the point on the concentration scale where inhibition reaches its midpoint – is 7 nM. In turn, `Cc1cc(CNC(=O)c2cn(C(C)C)c(C)c(-c3cccc(C(F)F)c3)c2=O)ccc1S(C)(=O)=O` [Example 28.2, 5-(3-Difluoromethyl-phenyl)-1-isopropyl-6-methyl-4-oxo-1,4-dihydro-pyridine-3-carboxylic acid 4-methanesulfonyl-3-methyl-benzylamide] returned an IC50 of 6 nM. Then `Cc1cc(CNC(=O)c2cn(C(C)C)c(C)c(-c3ccnc(C(F)(F)F)c3)c2=O)ccc1S(C)(=O)=O` [Example 28.3, 1-Isopropyl-2-methyl-4-oxo-2′-trifluoromethyl-1,4-dihydro-[3,4]bipyridinyl-5-carboxylic acid 4-methanesulfonyl-3-methyl-benzylamide], with 27 nM. As for `Cc1c(-c2cccc(C(F)(F)F)c2)c(=O)c(C(=O)NCc2ccc3c(c2)CCS3(=O)=O)cn1C(C)C` [Example 29.1, 1-Isopropyl-6-methyl-4-oxo-5-(3-trifluoromethyl-phenyl)-1,4-dihydro-pyridine-3-carboxylic acid (1,1-dioxo-2,3-dihydro-1H-1λ^6-benzo[b]thiophen-5-ylmethyl)-amide], half-maximal inhibition (IC50) was put at 4 nM. The value for `Cc1c(-c2cccc(C(F)F)c2)c(=O)c(C(=O)NCc2ccc3c(c2)CCS3(=O)=O)cn1C(C)C` [Example 29.2, 5-(3-Difluoromethyl-phenyl)-1-isopropyl-6-methyl-4-oxo-1,4-dihydro-pyridine-3-carboxylic acid (1,1-dioxo-2,3-dihydro-1H-1λ^6-benzo[b]thiophen-5-ylmethyl)-amide] was 3 nM; that for `Cc1c(-c2ccnc(C(F)(F)F)c2)c(=O)c(C(=O)NCc2ccc3c(c2)CCS3(=O)=O)cn1C(C)C` [Example 29.3, 1-Isopropyl-2-methyl-4-oxo-2′-trifluoromethyl-1,4-dihydro-[3,4]bipyridinyl-5-carboxylic acid (1,1-dioxo-2,3-dihydro-1H-1λ^6-benzo[b]thiophen-5-ylmethyl)-amide] was 15 nM; that for `CCS(=O)(=O)c1ccc(CNC(=O)c2cn(C(C)C)c(C)c(-c3cccc(C(F)(F)F)c3)c2=O)cc1` [Example 30.1, 1-Isopropyl-6-methyl-4-oxo-5-(3-trifluoromethyl-phenyl)-1,4-dihydro-pyridine-3-carboxylic acid 4-ethanesulfonyl-benzylamide] was 13 nM.

In turn, `CCc1c(-c2cccc(C(F)(F)F)c2)c(=O)c(C(=O)NCc2ccc(S(=O)(=O)CC)cc2)cn1C(C)C` [Example 30.2, 6-Ethyl-1-isopropyl-4-oxo-5-(3-trifluoromethyl-phenyl)-1,4-dihydro-pyridine-3-carboxylic acid 4-ethanesulfonyl-benzylamide] returned a concentration for half-maximal inhibition (IC50) of 11 nM. This IC50 and that of the molecule before are within 1.5-fold of each other. Then `Cc1c(-c2cccc(C(F)(F)F)c2)c(=O)c(C(=O)NCc2ccc(S(=O)(=O)C3CC3)cc2)cn1C(C)C` [Example 31, 1-Isopropyl-6-methyl-4-oxo-5-(3-trifluoromethyl-phenyl)-1,4-dihydro-pyridine-3-carboxylic acid 4-cyclopropanesulfonyl-benzylamide], with 5.2 nM.

In the case of `Cc1c(-c2cccc(C(F)(F)F)c2)c(=O)c(C(=O)NCc2ccc(S(C)(=O)=O)c(F)c2)cn1C(C)C` [Example 32, 1-Isopropyl-6-methyl-4-oxo-5-(3-trifluoromethyl-phenyl)-1,4-dihydro-pyridine-3-carboxylic acid 3-fluoro-4-methanesulfonyl-benzylamide], the IC50 was found to be 15 nM. The value for `Cc1c(-c2cccc(C(F)F)c2)c(=O)c(C(=O)NCc2ccc(S(C)(=O)=O)c(F)c2)cn1C(C)C` [Example 33, 5-(3-Difluoromethyl-phenyl)-1-isopropyl-6-methyl-4-oxo-1,4-dihydro-pyridine-3-carboxylic acid 3-fluoro-4-methanesulfonyl-benzylamide] was 16 nM. On to `Cc1c(-c2cccc(C(F)(F)F)c2)c(=O)c(C(=O)NCc2ccc(S(C)(=O)=O)cc2F)cn1C(C)C` [Example 34, 1-Isopropyl-6-methyl-4-oxo-5-(3-trifluoromethyl-phenyl)-1,4-dihydro-pyridine-3-carboxylic acid 2-fluoro-4-methanesulfonyl-benzylamide], for which the IC50 was 26 nM. This IC50 lies about 1.6-fold higher than the previous one.

As to `Cc1c(-c2cccc(C(F)F)c2)c(=O)c(C(=O)NCc2ccc(S(C)(=O)=O)cc2F)cn1C(C)C` [Example 35, 5-(3-Difluoromethyl-phenyl)-1-isopropyl-6-methyl-4-oxo-1,4-dihydro-pyridine-3-carboxylic acid 2-fluoro-4-methanesulfonyl-benzylamide], the half-maximal inhibitory concentration (IC50) amounted to 17 nM.

For the molecule `Cc1cc(S(C)(=O)=O)ccc1CNC(=O)c1cn(C(C)C)c(C)c(-c2cccc(C(F)(F)F)c2)c1=O` [Example 36, 1-Isopropyl-6-methyl-4-oxo-5-(3-trifluoromethyl-phenyl)-1,4-dihydro-pyridine-3-carboxylic acid 4-methanesulfonyl-2-methyl-benzylamide], the IC50 turned out to be 19 nM. Consider `Cc1cc(S(C)(=O)=O)ccc1CNC(=O)c1cn(C(C)C)c(C)c(-c2cccc(C(F)F)c2)c1=O` [Example 37, 5-(3-Difluoromethyl-phenyl)-1-isopropyl-6-methyl-4-oxo-1,4-dihydro-pyridine-3-carboxylic acid 4-methanesulfonyl-2-methyl-benzylamide], for which the IC50 was 27 nM. This IC50 and that of the molecule before are within 1.5-fold of each other. The value for `Cc1c(-c2cccc(C(F)(F)F)c2)c(=O)c(C(=O)NCc2cn3c(n2)S(=O)(=O)CC3)cn1C(C)C` [Example 38, 1-Isopropyl-6-methyl-4-oxo-5-(3-trifluoromethyl-phenyl)-1,4-dihydro-pyridine-3-carboxylic acid (1,1-dioxo-2,3-dihydro-1H-1λ^6-imidazo[2,1-b]thiazol-6-ylmethyl)-amide] was 5.3 nM. The value for `Cc1c(-c2cccc(C(F)F)c2)c(=O)c(C(=O)NCc2ccc(S(C)(=O)=O)s2)cn1C(C)C` [Example 40, 5-(3-Difluoromethyl-phenyl)-1-isopropyl-6-methyl-4-oxo-1,4-dihydro-pyridine-3-carboxylic acid (5-methanesulfonyl-thiophen-2-ylmethyl)-amide] was 31 nM; that for `COC[C@H](C)n1cc(C(=O)NCc2ccc(S(C)(=O)=O)cc2)c(=O)c(-c2cccc(C(F)F)c2)c1C` [Example 42, (S)-5-(3-Difluoromethyl-phenyl)-1-(2-methoxy-1-methyl-ethyl)-6-methyl-4-oxo-1,4-dihydro-pyridine-3-carboxylic acid 4-methanesulfonyl-benzylamide] was 8.1 nM; that for `COC[C@@H](C)n1cc(C(=O)NCc2ccc(S(C)(=O)=O)cc2)c(=O)c(-c2cccc(C(F)F)c2)c1C` [Example 44, (R)-5-(3-Difluoromethyl-phenyl)-1-(2-methoxy-1-methyl-ethyl)-6-methyl-4-oxo-1,4-dihydro-pyridine-3-carboxylic acid 4-methanesulfonyl-benzylamide] was 45 nM.

The molecule `Cc1c(-c2cccc(C(F)(F)F)c2)c(=O)c(C(=O)NCc2ccc(S(C)(=O)=O)cc2)cn1CCF` [Example 45, 1-(2-Fluoro-ethyl)-6-methyl-4-oxo-5-(3-trifluoromethyl-phenyl)-1,4-dihydro-pyridine-3-carboxylic acid 4-methanesulfonyl-benzylamide] gave an IC50 of 34 nM. The IC50 values of the last two molecules are within 1.5-fold of each other.

In turn, `Cc1c(-c2cccc(C(F)(F)F)c2)c(=O)c(C(=O)NCc2ccc(S(C)(=O)=O)cc2)cn1CC(F)F` [Example 46, 1-(2,2-Difluoro-ethyl)-6-methyl-4-oxo-5-(3-trifluoromethyl-phenyl)-1,4-dihydro-pyridine-3-carboxylic acid 4-methanesulfonyl-benzylamide] showed an IC50 of 46 nM. Turning to `COc1cc(S(C)(=O)=O)ccc1CNC(=O)c1cn(C(C)C)c(C)c(-c2cccc(C(F)(F)F)c2)c1=O` [Example 47, 1-Isopropyl-6-methyl-4-oxo-5-(3-trifluoromethyl-phenyl)-1,4-dihydro-pyridine-3-carboxylic acid 4-methanesulfonyl-2-methoxy-benzylamide], the IC50 was determined as 38 nM. In turn, `Cc1c(-c2cccc(C(F)(F)F)c2)c(=O)c(C(=O)NCc2ccc3c(c2)C=CS3(=O)=O)cn1C(C)C` [Example 48, 1-Isopropyl-6-methyl-4-oxo-5-(3-trifluoromethyl-phenyl)-1,4-dihydro-pyridine-3-carboxylic acid (1,1-dioxo-1H-1λ^6-benzo[b]thiophen-5-ylmethyl)-amide] showed an IC50 of 11 nM.

In the case of `COc1cc(CNC(=O)c2cn(C(C)C)c(C)c(-c3cccc(C(F)(F)F)c3)c2=O)ccc1S(C)(=O)=O` [Example 49, 1-Isopropyl-6-methyl-4-oxo-5-(3-trifluoromethyl-phenyl)-1,4-dihydro-pyridine-3-carboxylic acid 4-methanesulfonyl-3-methoxy-benzylamide], the IC50 came to 47 nM. Then `Cc1c(-c2cccc(C(F)F)c2)c(=O)c(C(=O)NCc2ccc3c(c2)C=CS3(=O)=O)cn1C(C)C` [Example 50, 5-(3-Difluoromethyl-phenyl)-1-isopropyl-6-methyl-4-oxo-1,4-dihydro-pyridine-3-carboxylic acid (1,1-dioxo-1H-1λ^6-benzo[b]thiophen-5-ylmethyl)-amide1], with 7.8 nM.
